Assay results: US11396504B2, “Alkoxybenzo-five-membered (six-membered) heterocyclic amine compound and pharmaceutical use thereof” (FUDAN UNIVERSITY, priority 2018, dated 2022)

Columns and labels:
SMS = conditions: reported weak inhibitory activity; cited from earlier work
[1] = biological target: T1, Sphingomyelin Synthase 2 (SMS2 pure enzyme) (Homo sapiens, UniProt Q8NHU3); experiment: In vitro SMS2 pure enzyme inhibition, HPLC fluorogenic quantitative detecting method (C6-NBD-Ceramide to C6-NBD-SM); type: biochemical; conditions: for IC50: SMS2 pure enzyme, five concentrations, three parallel groups, experimental value; for Selectivity ratio: SMS1 IC50 relative to SMS2 IC50
T1 construct: Yu, Cao research group of National Protein Science Center (Shanghai)
T1 sequence (Q8NHU3 1-365): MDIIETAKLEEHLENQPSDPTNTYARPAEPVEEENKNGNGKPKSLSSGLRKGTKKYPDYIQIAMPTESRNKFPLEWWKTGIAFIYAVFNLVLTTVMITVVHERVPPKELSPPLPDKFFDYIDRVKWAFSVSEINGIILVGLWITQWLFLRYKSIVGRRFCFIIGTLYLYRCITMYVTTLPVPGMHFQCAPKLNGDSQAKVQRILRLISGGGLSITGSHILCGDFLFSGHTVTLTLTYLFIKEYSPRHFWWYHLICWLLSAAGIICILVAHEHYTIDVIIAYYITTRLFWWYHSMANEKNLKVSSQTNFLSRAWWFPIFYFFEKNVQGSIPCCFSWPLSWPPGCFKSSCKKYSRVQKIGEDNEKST
Procedure: Add […] SMS2 pure enzyme DDM solution (total protein content 1.5 μg/μL), 1 μL test compound in DMSO solution or blank DMSO solution, 79.7 μL DDM buffer to 1.5 mL Eppendorf tube, vortex 30 seconds, let stand at room temperature for 5 min. Then add 20 μL DDM buffer containing 1 μL DMPC in ethanol (40 mmol/L) and 1 μL C6-NBD-Ceramide in DMSO (1.16 mmol/L). After vortexing for 30 seconds, Incubate for 0.5 h under water bath at 37° C. Then remove, add 200 μL of absolute ethanol, and vortex for 30 seconds. Take out 200 μL of the mixture and store it at 4° C. for high performance liquid chromatography analysis.
(§1) Using the same HPLC fluorogenic quantitative detecting method as reference (Xiaodong Deng; Hong Sun; et al. Analytical Letters, 2012, 45:12, 1581-1589) to analyses samples obtained above. Analysize and record peak areas of C6-NBD-SM (Asm) and C6-NBD-Ceramide (Acer) of each sample from blank group, positive control group (compound D2) and under tested compound group. Calculate inhibition rate from the formula below: […]
The DMSO stock solution of under tested compound (6 mM) was diluted stepwise into five concentration gradient. 1 μL solution of each concentration was added into the trial system to prepare samples with the method mentioned in the first step of application case 15. The Asm values of the five concentration solution of tested compound were measured (compound D2 is a positive control), and the inhibition rate under the five concentration were calculated and fitted to obtain median inhibitory concentration (IC50). Each compound was measured three parallel groups. SMS2 median inhibitory concentration and SMS1 single inhibitory concentration (50 μM) of Scheme I-1˜I-38, and SMS1 median inhibitory concentration of some compounds are listed below in Table 1.

[2] = biological target: T2, Sphingomyelin Synthase 1 (SMS1 pure enzyme) (Homo sapiens, UniProt Q86VZ5); experiment: In vitro SMS1 pure enzyme inhibition, HPLC fluorogenic quantitative detecting method; type: biochemical; conditions: for inhibition at 50 µM: single concentration 50 μM
T2 construct: Yu, Cao research group of National Protein Science Center (Shanghai)
T2 sequence (Q86VZ5 1-413): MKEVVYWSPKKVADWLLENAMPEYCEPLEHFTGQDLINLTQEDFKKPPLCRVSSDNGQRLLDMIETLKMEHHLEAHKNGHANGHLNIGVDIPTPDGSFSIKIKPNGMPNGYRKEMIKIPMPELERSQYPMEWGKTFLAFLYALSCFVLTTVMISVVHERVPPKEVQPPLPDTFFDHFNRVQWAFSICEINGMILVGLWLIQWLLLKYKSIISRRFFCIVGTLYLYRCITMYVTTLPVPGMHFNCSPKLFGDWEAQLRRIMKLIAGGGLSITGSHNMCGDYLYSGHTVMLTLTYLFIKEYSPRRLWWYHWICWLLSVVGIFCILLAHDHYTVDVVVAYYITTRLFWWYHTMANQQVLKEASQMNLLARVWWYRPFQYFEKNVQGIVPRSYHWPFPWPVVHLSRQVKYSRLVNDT
Excerpt: Referring to the above SMS2 inhibitory activity detection method, and using SMS1 pure enzyme instead of SMS2 pure enzyme for corresponding operation.
as §1
Part 4. Determination of SMS1 Median Inhibitory Concentration (IC50) and SMS1 Single Concentration (50 μM) Inhibitory Concentration of Alkoxybenzeno Five- or Six-Member Heterocyclic Amines (Scheme I-1˜I-38)
The experiment can be carried out with the corresponding concentration according to the operation similar to the determination of the median inhibitory concentration (IC50) of SMS2.

SMILES	IC50 [1] [µM]	inhibition at 50 µM [2] [%]	Selectivity ratio [1]	IC50 [2] [µM]	IC50 (SMS) [µM]
S=C(S)OC1CC2CC1C1CCCC21 (stereo not drawn) [Scheme D609]					375
N#Cc1cccc(COc2cccc3onc(Nc4cccnc4)c23)c1 [Scheme I-23, 4-((3-Cyanobenzyl)oxy)-N-(pyridin-3-yl)benzo[d]isoxazol-3-amine]	0.945	8			
Cc1cccc(C)c1COc1cccc2onc(Nc3cccnc3)c12 [Scheme I-25, 4-((2,6-Dimethylbenzyl)oxy)-N-(pyridin-3-yl)benzo[d]isoxazol-3-amine]	0.153	53	307	47	
c1ccc(COc2cccc3snc(Nc4cccnc4)c23)cc1 [Scheme I-31, 4-(benzyloxy)-N-(pyridin-3-yl)benzo[d]isothiazol-3-amine]	1.46	13			
O=C(CN1CCCCC1)Nc1noc2cccc(OCc3cc(F)ccc3Cl)c12 [Scheme I-37, N-(4-((2-chloro-5-fluorobenzyl)oxy)benzo[d]isoxazol-3-yl)-2-(piperidin-1-yl)acetamide]	> 10	60			
O=C(CN1CCOCC1)Nc1noc2cccc(OCc3cc(F)ccc3Cl)c12 [Scheme I-38, N-(4-((2-chloro-5-fluorobenzyl)oxy)benzo[d]isoxazol-3-yl)-2-morpholinoacetamide]	> 10	-1			
c1ccc(-c2cc(COc3cccc4onc(Nc5cccnc5)c34)ccn2)cc1 [Scheme I-39, 4-((2-phenylpyridin-4-yl)methoxy)-N-(pyridin-3-yl)benzo[d]isoxazol-3-amine]	13	-6			

Second part, led by results:

IC50 [1] [µM]	inhibition at 50 µM [2] [%]	Selectivity ratio [1]	IC50 [2] [µM]	SMILES	IC50 (SMS) [µM]
0.079	25	886	70	Clc1cccc(Cl)c1COc1cccc2onc(Nc3cccnc3)c12 [Scheme I-26, 4-((2,6-Dichlorobenzyl)oxy)-N-(pyridin-3-yl)benzo[d]isoxazol-3-amine]	
0.72	30			Fc1cccc(F)c1COc1cccc2onc(Nc3cccnc3)c12 [Scheme I-27, 4-((2,6-Difluorobenzyl)oxy)-N-(pyridin-3-yl)benzo[d]isoxazol-3-amine]	
0.86	60			Fc1ccc(Cl)c(COc2cccc3onc(Nc4cncnc4)c23)c1 [Scheme I-33, 4-((2-chloro-5-fluorobenzyl)oxy)-N-(pyrimidin-5-yl)benzo[d]isoxazol-3-amine]	
> 10	11			CCN(CC)CC(=O)Nc1noc2cccc(OCc3cc(F)ccc3Cl)c12 [Scheme I-35, N-(4-((2-chloro-5-fluorobenzyl)oxy)benzo[d]isoxazol-3-yl)-2-(diethylamino) acetamide]	
> 10	9			O=C(CN1CCCC1)Nc1noc2cccc(OCc3cc(F)ccc3Cl)c12 [Scheme I-36, N-(4-((2-chloro-5-fluorobenzyl)oxy)benzo[d]isoxazol-3-yl)-2-(pyrrolidin-1-y) acetamide]	
